Where “and” joins values, the source holds several entries; their conditions need not be identical. Equal entries are not always repeated.
Experiments:
Assay in all cases: Affinity-purification and mass spectrometry (AP-MS) chemical proteomics, all proteins;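 on Difference: 200 µM free competitor with 20 µM biotin probe overnight in lysate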
Format in all cases: binding
[1] = system: proteins displaced from immobilized biotin-Cmpd 1 pulldowns (U2OS cell lysate); conditions: Cmpd minus DMSO
[2] = biological target: T1, proteins displaced from immobilized biotin-Cmpd 1 pulldowns (U2OS cell lysate) (Homo sapiens, UniProt P13639); conditions: GN=EEF2 (P13639)
T1 construct: endogenous in cells; host or cells: U2OS

[3] = biological target: T2, proteins displaced from immobilized biotin-Cmpd 1 pulldowns (U2OS cell lysate) (Homo sapiens, UniProt O94925); conditions: GN=GLS (O94925)
T2 construct: endogenous in cells; host or cells: U2OS

[4] = biological target: T3, proteins displaced from immobilized biotin-Cmpd 1 pulldowns (U2OS cell lysate) (Homo sapiens, UniProt O43660); conditions: GN=PLRG1 (O43660)
T3 construct: endogenous in cells; host or cells: U2OS

[5] = biological target: T4, proteins displaced from immobilized biotin-Cmpd 1 pulldowns (U2OS cell lysate) (Homo sapiens, UniProt Q15050); conditions: GN=RRS1 (Q15050)
T4 construct: endogenous in cells; host or cells: U2OS

[6] = biological target: T5, proteins displaced from immobilized biotin-Cmpd 1 pulldowns (U2OS cell lysate) (Homo sapiens, UniProt P40939); conditions: GN=HADHA (P40939)
T5 construct: endogenous in cells; host or cells: U2OS

[7] = biological target: T6, proteins displaced from immobilized biotin-Cmpd 1 pulldowns (U2OS cell lysate) (Homo sapiens, UniProt Q9Y6M1); conditions: GN=IGF2BP2 (Q9Y6M1)
T6 construct: endogenous in cells; host or cells: U2OS

[8] = biological target: T7, proteins displaced from immobilized biotin-Cmpd 1 pulldowns (U2OS cell lysate) (Homo sapiens, UniProt P07339); conditions: GN=CTSD (P07339)
T7 construct: endogenous in cells; host or cells: U2OS

[9] = biological target: T8, proteins displaced from immobilized biotin-Cmpd 1 pulldowns (U2OS cell lysate) (Homo sapiens, UniProt Q14151); conditions: GN=SAFB2 (Q14151)
T8 construct: endogenous in cells; host or cells: U2OS
T8 sequence (Q14151 whole entry): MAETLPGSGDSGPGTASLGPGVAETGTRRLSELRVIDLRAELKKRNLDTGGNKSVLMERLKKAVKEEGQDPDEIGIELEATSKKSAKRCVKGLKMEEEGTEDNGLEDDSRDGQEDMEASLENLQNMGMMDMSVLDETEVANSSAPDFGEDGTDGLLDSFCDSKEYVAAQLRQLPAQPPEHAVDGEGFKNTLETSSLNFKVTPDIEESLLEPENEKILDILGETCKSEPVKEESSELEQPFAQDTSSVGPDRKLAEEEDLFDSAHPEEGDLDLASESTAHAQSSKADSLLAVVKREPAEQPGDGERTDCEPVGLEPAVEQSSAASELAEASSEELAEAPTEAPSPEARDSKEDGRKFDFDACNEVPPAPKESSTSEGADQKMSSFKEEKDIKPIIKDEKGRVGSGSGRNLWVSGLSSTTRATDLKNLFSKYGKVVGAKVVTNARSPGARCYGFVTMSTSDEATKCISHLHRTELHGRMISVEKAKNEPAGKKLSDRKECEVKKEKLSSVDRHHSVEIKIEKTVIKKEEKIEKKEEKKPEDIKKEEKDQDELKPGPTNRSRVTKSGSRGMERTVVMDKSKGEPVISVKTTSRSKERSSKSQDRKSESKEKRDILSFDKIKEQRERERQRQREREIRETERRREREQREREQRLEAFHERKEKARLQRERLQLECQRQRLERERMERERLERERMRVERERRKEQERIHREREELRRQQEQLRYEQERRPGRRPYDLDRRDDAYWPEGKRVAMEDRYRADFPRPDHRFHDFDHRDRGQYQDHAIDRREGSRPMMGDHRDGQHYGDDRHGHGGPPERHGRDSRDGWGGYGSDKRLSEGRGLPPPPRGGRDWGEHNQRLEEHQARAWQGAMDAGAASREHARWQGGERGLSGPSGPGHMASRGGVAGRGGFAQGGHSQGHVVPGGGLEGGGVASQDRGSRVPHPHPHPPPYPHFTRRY

T5 sequence (P40939 37-763): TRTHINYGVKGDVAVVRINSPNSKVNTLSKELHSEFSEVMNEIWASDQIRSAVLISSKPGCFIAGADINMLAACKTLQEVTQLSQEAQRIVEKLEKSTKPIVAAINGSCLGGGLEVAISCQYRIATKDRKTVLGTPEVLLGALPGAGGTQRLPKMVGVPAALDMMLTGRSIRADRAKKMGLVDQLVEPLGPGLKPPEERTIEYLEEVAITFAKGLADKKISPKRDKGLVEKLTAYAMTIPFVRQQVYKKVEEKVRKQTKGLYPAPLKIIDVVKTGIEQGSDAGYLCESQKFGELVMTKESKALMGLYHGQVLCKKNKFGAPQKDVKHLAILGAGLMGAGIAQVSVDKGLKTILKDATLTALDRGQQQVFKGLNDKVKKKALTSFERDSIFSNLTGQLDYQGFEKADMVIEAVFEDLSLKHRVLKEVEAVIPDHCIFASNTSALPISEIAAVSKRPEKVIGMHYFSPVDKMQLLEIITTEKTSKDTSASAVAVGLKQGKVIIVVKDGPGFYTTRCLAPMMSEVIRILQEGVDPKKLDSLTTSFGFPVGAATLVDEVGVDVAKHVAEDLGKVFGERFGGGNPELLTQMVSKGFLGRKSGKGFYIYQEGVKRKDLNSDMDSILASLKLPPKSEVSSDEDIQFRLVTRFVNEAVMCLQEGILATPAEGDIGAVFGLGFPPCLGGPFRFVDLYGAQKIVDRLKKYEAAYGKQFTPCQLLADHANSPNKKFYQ
T2 sequence (O94925 55-669): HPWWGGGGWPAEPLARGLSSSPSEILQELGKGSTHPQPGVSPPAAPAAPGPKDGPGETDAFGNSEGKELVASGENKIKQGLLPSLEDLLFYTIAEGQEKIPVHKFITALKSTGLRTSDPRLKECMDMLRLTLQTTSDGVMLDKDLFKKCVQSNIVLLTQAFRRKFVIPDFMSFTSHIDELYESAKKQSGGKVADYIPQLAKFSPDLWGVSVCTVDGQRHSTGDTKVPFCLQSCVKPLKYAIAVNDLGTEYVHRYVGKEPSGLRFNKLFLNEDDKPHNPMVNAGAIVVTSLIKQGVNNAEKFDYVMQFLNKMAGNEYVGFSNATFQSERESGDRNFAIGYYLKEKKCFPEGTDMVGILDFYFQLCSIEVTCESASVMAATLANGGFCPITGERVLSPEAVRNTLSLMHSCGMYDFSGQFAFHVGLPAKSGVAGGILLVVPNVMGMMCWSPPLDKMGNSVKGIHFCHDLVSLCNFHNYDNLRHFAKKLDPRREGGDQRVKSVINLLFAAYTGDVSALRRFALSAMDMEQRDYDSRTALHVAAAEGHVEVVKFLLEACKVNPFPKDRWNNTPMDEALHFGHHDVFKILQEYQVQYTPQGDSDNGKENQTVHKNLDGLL
T7 sequence (P07339 65-412): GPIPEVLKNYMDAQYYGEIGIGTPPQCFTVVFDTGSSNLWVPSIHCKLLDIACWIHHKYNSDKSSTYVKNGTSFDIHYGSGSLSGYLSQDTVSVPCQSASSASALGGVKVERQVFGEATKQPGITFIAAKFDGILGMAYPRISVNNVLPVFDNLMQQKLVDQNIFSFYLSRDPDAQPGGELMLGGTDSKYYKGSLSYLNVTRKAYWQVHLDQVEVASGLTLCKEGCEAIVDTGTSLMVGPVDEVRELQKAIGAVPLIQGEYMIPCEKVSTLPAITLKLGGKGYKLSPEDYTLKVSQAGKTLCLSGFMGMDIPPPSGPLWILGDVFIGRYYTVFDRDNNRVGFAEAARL
T4 sequence (Q15050 whole entry): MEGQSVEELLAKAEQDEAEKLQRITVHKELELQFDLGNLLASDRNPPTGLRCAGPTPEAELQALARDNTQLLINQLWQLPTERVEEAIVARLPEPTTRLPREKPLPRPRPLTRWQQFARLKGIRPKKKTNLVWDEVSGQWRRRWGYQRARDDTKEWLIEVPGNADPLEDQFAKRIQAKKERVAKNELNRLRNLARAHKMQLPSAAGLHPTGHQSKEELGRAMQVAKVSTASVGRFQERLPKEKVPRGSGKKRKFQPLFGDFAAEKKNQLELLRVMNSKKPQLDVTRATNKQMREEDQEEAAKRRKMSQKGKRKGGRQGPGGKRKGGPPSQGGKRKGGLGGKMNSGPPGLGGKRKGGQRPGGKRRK
T3 sequence (O43660 whole entry): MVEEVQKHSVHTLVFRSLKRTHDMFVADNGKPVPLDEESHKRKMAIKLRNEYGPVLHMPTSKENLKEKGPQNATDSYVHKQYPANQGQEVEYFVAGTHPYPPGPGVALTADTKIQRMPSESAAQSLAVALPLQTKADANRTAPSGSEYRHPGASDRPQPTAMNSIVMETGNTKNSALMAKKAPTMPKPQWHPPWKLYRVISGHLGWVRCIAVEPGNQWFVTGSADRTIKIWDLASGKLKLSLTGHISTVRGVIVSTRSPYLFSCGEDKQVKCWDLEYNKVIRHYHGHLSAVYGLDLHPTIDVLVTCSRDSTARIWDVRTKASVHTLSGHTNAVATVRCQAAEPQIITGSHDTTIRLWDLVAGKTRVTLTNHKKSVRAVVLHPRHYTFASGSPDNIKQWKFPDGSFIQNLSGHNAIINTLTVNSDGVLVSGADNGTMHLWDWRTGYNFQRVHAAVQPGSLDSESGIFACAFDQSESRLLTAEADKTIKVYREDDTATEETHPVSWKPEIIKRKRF
T6 sequence (Q9Y6M1 whole entry): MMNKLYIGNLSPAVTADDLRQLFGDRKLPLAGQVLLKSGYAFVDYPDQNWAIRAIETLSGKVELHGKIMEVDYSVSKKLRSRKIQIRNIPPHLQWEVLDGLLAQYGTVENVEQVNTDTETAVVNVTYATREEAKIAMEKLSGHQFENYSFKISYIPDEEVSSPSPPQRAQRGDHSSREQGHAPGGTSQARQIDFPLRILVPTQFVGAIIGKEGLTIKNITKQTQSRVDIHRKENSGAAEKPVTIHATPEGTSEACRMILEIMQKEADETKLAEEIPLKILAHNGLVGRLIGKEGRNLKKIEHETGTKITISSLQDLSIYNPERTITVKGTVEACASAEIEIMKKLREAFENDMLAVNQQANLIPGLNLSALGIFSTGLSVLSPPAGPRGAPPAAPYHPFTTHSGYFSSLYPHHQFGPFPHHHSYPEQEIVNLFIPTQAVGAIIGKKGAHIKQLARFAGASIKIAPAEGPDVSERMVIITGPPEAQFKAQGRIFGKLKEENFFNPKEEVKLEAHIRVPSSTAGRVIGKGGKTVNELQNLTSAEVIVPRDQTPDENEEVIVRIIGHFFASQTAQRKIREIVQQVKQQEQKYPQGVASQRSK

Cn1c2c(c(=N)c3c1CCC3)CCC2 [Compound 1, 4-methyl-2,3,4,5,6,7-hexahydrodicyclopenta[b,e]pyridin-8(1H)-imine]
Difference ([1]; GN=ACTA1/ACTC1 (P68133;P68032;P63267;P62736), -LOG(P-value) 1.19415): -2.469 | Difference ([1]; GN=FXR1 (P51114;P51116 FXR2), -LOG(P-value) 0.714644): 1.56 | Difference ([1]; GN=MYL1/MYL3 (P05976;P08590), -LOG(P-value) 0.754366): -4.118 | Difference ([1]; GN=RGPD4/RGPD3 (Q7Z3J3;A6NKT7;P49792), -LOG(P-value) 1.07048): -0.9439 | Difference ([1]; GN=TUBB2A/TUBB2B (Q13885;Q9BVA1), -LOG(P-value) 2.56756): 3.9801 | Difference ([2]; Cmpd minus DMSO, -LOG(P-value) 1.71036): -0.7791 | iBAQ Cmpd ([2]; replicates 1-3): 17.772 and 17.7165 and 17.939 | Difference ([3]; Cmpd minus DMSO, -LOG(P-value) 0.714958): 1.117 | iBAQ Cmpd ([3]; replicates 1-3): 18.1344 and 18.3969 and 16.5727 | Difference ([4]; Cmpd minus DMSO, -LOG(P-value) 0.874244): 2.0669 | iBAQ Cmpd ([4]; replicates 1-3): 19.5697 and 18.4715 and 18.0629 | Difference ([5]; Cmpd minus DMSO, -LOG(P-value) 0.720694): 2.281 | iBAQ Cmpd ([5]; replicates 1-3): 15.4548 and 18.445 and 19.3119 | Difference ([6]; Cmpd minus DMSO, -LOG(P-value) 0.714126): 0.947 | iBAQ Cmpd ([6]; replicates 1-3): 19.348 and 18.8178 and 18.412 | Difference ([7]; Cmpd minus DMSO, -LOG(P-value) 0.946138): 1.759 | iBAQ Cmpd ([7]; replicates 1-3): 20.2891 and 19.4609 and 19.6711 | Difference ([8]; Cmpd minus DMSO, -LOG(P-value) 0.933319): -3.118 | iBAQ Cmpd ([8]; replicates 1-3): 18.4576 and 18.593 and 15.0798 | Difference ([9]; Cmpd minus DMSO, -LOG(P-value) 1.24711): 1.435 | iBAQ Cmpd ([9]; replicates 1-3): 18.2139 and 16.8013 and 17.9077
